According to patent publication US10668134B2, “Dental pretreatment material and dental tissue regeneration kit” (National Center for Geriatrics and Gerontology, priority 2016, dated 2020):

What was measured:
Assay type in all cases: cell-based
[1] = test system: Fifth-passage human periodontal membrane cells; assay: mRNA expression of CCL11, CCR3 and GDF11 in human periodontal membrane cells (real-time RT-PCR); conditions: 5, 10 and 30 ng/μl added; after 32 hours
Procedure: Fifth-passage human periodontal membrane cells were plated in a DMEM containing 10% FBS in collagen-coated 35 mm dishes (IWAKI) at a density of 2×10^4 cells/ml. After 9 hours, an ALK5 inhibitor (SB431542) was added to final concentrations of 5 ng/μl, 10 ng/μl, and 30 ng/μl. Further, a CCR3 antagonist (SB328437) was added to final concentrations of 5 ng/μl, 10 ng/μl, and 30 ng/μl. After 32 hours, mRNA was extracted, and real-time RT-PCR was performed on CCL11, CCR3, and GDF11.

[2] = test system: Eleventh-passage human periodontal ligament cells; assay: Senescence marker expression in senescent cells of human periodontal membrane (real-time RT-PCR); conditions: 48 hours; for IL1β senescence marker expression / IL6 senescence marker expression / IL8 senescence marker expression / p16 senescence marker expression / p53 senescence marker expression: control = 1
Procedure: (§1) Eleventh-passage human periodontal ligament cells were plated in DMEM containing 10% FBS in collagen-coated 35 mm dishes (IWAKI) at a density of 2×10^4 cells/ml. After 20 hours, ALK5 inhibitor (SB431542) was added to final concentrations of 5 ng/μl and 10 ng/μl. Further, CCR3 antagonist (SB328437) was added to final concentrations of 5 ng/μl and 10 ng/μl. After 48 hours, mRNA was extracted, and real-time RT-PCR was performed on senescence markers, namely p16, p53, IL6, IL1b, IL8, and TNFα (Table 4).

[3] = test system: Eleventh-passage human periodontal ligament cells; assay: Expression of migratory capacity-related factors in senescent cells of human periodontal membrane (real-time RT-PCR); conditions: control = 1
Procedure: as §1
Real-time RT-PCR was performed on migratory capacity-related factors, namely, MMP9, MMP3, and MMP2 (Table 8) using mRNA similar to that described in 2 above.

[4] = test system: Eleventh-passage human periodontal membrane cells; assay: Migratory capacity of senescent cells of human periodontal membrane (TAXIscan-FL, SDF1 gradient); conditions: 48 hours, n=4, control 53.8 ± 4.6
Procedure: Eleventh-passage human periodontal membrane cells were plated in DMEM containing 10% FBS in collagen-coated 35 mm dishes (IWAKI) at a density of 2×10^4 cells/ml. After 20 hours, an ALK5 inhibitor (SB431542) was added to a final concentration of 10 ng/μl. Further, a CCR3 antagonist (SB328437) was added to a final concentration of 5 ng/μl. After 48 hours, the cells were detached, and Real-time horizontal chemotaxis analysis was performed using TAXIscan-FL (Effector Cell Institute, Tokyo) so as to measure the migratory capacity. Specifically, channels optimized (8 μm) for the size of cells are formed between a silicon plate having 6 μm pores and a glass plate, and 1 μl of treated periodontal membrane cells (10^5 cells/ml) was injected to one end portion of an associated one of the channels (n=4). Then, 1 μl of 10 ng/μl SDF1 was placed on the opposite side portion so as to form a certain constant concentration gradient. Based on the video images of migration, the number of migrating cells after 12 hours was measured.

[5] = test system: HUVECs (Human Umbilical Vein Endothelial Cells); assay: Blood vessel-inducing capacity of culture supernatant of senescent dental pulp stem cells on HUVECs on matrigel; conditions: after 5 hours, DPSC CM alone 5.9 ± 2.9 mm
Procedure: (§2) Non-separated 22nd-passage human dental pulp stem cells were brought into a state of 50% confluence. The medium was replaced with a serum-free medium. After 24 hours, the culture conditioned medium was collected. The supernatant was concentrated approximately 40-fold using Amicon Ultra-15 Centrifugal Filter Unit with Ultracel-3 membrane (Millipore, Billerica, Mass.) with 3-kDa molecular cut. Proteinase inhibitors (Halt™ proteinase inhibitor cocktail EDTA-free, Thermo Scientific, Rockford, Ill., USA) was added. The mixture was dispended to be stored at −80° C. Protein content was measured using Bradford Ultra™ (Expedeon, Cambridge, UK).
HUVECs (Human Umbilical Vein Endothelial Cells) (clone 7F3415) (Lonza) were cultured with EGM 2 containing 10% FBS (Lonza). Thereafter, the culture supernatant (5 μg/ml proteins) prepared in 1 above was added to DMEM, as a blood vessel-inducing medium, containing 2% FBS, 5 μg/ml heparin (Lonza), 5 μg/ml ascorbic acid (Lonza), and 5 μg/ml hydrocortisone (Lonza). Further, an ALK5 inhibitor (SB431542, 10 ng/μl) was added to a part of the resultant mixture, and a CCR3 antagonist (SB328437, 5 ng/μl) was added to another part of the resultant mixture. […] Quantitative measurement was conducted, using Suite V3 software (Leica), on the length of a formed cord or tubular lumen.

[6] = test system: Fourth-passage human dental pulp cells; assay: Migration promotion of dental pulp cells by culture supernatant of senescent dental pulp stem cells (TAXIscan-FL); conditions: 1 μl DPSC CM containing 1 μl of 20 mg/ml compound as attractant; n=4; non 5.0 ± 1.0
Procedure: as §2
Fourth-passage human dental pulp cells were plated in DMEM containing 10% FBS in 10 cm dishes (FALCON) at 2×10^4 cells/ml. After 48 hours, the cells were detached, and a real-time horizontal chemotaxis analysis was performed using TAXlscan-FL (Effector Cell Institute, Tokyo) to measure the migratory capacity. Specifically, channels optimized (8 μm) for the size of the cells were formed between a silicon plate having 6 μm pores and a glass plate, and 1 μl of treated dental pulp cells (10^5 cells/ml) was injected to one end portion of each of the channels (n=4). As a control, one of the channels received nothing at the opposite end portion. […] Based on the video images of migration, the number of migrating cells after 12 hours was measured.

Compound | mRNA expression of CCL11 [1] | IL1β senescence marker expression ([2]; 5 ng/μl) | IL6 senescence marker expression ([2]; 5 ng/μl) | IL8 senescence marker expression ([2]; 5 ng/μl) | p16 senescence marker expression ([2]; 5 ng/μl) | p53 senescence marker expression ([2]; 5 ng/μl) | IL1β senescence marker expression ([2]; 10 ng/μl) | IL6 senescence marker expression ([2]; 10 ng/μl) | IL8 senescence marker expression ([2]; 10 ng/μl) | p16 senescence marker expression ([2]; 10 ng/μl) | p53 senescence marker expression ([2]; 10 ng/μl) | MMP2 expression (migratory capacity-related factor) ([3]; 5 ng/μl) | MMP3 expression (migratory capacity-related factor) ([3]; 5 ng/μl) | MMP9 expression (migratory capacity-related factor) ([3]; 5 ng/μl) | MMP2 expression (migratory capacity-related factor) ([3]; 10 ng/μl) | MMP3 expression (migratory capacity-related factor) ([3]; 10 ng/μl) | MMP9 expression (migratory capacity-related factor) ([3]; 10 ng/μl) | number of migrating cells after 12 hours, Average ± SD [6] | also measured
NC(=O)c1ccc(-c2nc(-c3ccc4c(c3)OCO4)c(-c3ccccn3)[nH]2)cc1 [ALK5 inhibitor, SB431542] | completely suppressed | 0.16 | 0.20 | 0.15 | 0.36 | 0.92 | 0.03 | 0.04 | 0.04 | 0.10 | 0.50 | 0.93 | 1.08 | 0.10 | 1.02 | 0.96 | 0.06 | 12.7 ± 2.1 | increase of expression of GDF11 mRNA [1]: 5 times; TNFα mRNA expression ([2]; 5 ng/μl and 10 ng/μl added): significantly suppressed; number of migrating cells after 12 hours, Average ± SD ([4]; final concentration 10 ng/μl): 21.3 ± 10.9; Length of New Blood Vessel ([5]; DPSC CM + 10 ng/μl): 13.2 ± 2.6 mm
COC(=O)[C@H](Cc1ccc([N+](=O)[O-])cc1)NC(=O)c1cccc2ccccc12 [CCR3 antagonist, SB328437] | completely suppressed | 0.09 | 0.09 | 0.12 | 0.14 | 0.56 | 0.31 | 0.20 | 0.26 | 0.30 | 0.92 | 0.54 | 2.34 | 0 | 0.75 | 0.54 | 0.63 | 23.7 ± 5.1 | mRNA expression of CCR3 [1]: completely suppressed; number of migrating cells after 12 hours, Average ± SD ([4]; final concentration 5 ng/μl): 23.3 ± 10.7; Length of New Blood Vessel ([5]; DPSC CM + 5 ng/μl): 2.8 ± 0.3 mm
